System: melanin pigment deposition in skin after sunlight exposure
Test: Whitening effect testing (hypochromic effect on sun-exposed upper arm skin of testees)
Assay type: in vivo, human
Settings: applied twice daily for 4 weeks after sunlight exposure, 8 persons per group
Experimental: (§1) 40 testees were exposed to summer sunlight for 4 hours (2 hours a day for 2 days) and the skin of an inner lateral part of their upper arm was used as the subject of the test. Beginning after 5 days from the day they were exposed to the sunlight, each sample was applied to this skin once in the morning and once in the afternoon for 4 weeks. The panel was divided into 5 groups with 8 persons in each group. Testing was conducted using the following formulations.
The hypochromic effect after the application was evaluated based on the criteria below.
Samples were prepared with the blend compositions described in the aforementioned test method, and the drugs listed in Table 2 were used to compare the whitening effect.
as §1, with “From” for “from”
Samples were prepared with the blend compositions described in the aforementioned test method, and the drugs listed in Table 4 were used to compare the whitening effect.
Samples were prepared with the blend compositions described in the aforementioned test method, and the drugs listed in Table 6 were used to compare the whitening effect.
as §1, with “groups 5” for “groups”
Samples were prepared with the blend compositions described in the aforementioned test Method, and the drugs listed in Table 8 were used to compare the whitening effect.

Oc1ccc(O)cc1 [Hydroquinone]
Effect (hypochromic effect) (Table 2, Blend Ratio 1.0 wt % in lotion): Δ (Δ: Very effective or effective on 30% to less than 50% testees)
Effect (hypochromic effect) (Table 4, Blend Ratio 1.0 wt % in lotion): Δ (Δ: Very effective or effective on 30% to less than 50% testees)
Effect (hypochromic effect) (Table 6, Blend Ratio 1.0 % in lotion): Δ (Δ: Very effective or effective on 30% to less than 50% testees)
Effect (hypochromic effect) (Table 8, Blend Ratio (5) 1.0 in lotion): Δ (Δ: Very effective or effective on 30% to less than 50% testees)

Reference: patent US5631002A, “Liniment for melanin inhibitors” (Shiseido Co., Ltd., priority 1994, dated 1997)
